The numbers were not newly measured in US20040202693A1, “Pharmaceutical compositions releasing their active agents from a buccal or sublingual location to overcome an absorption window problem” (priority 2003, published 2004), which cites them from elsewhere.

Structures are written as SMILES. Like-named read-outs stand apart in the source and are kept apart here.

For data set [1] the following is noted: oral administration in conventional dosage forms, upper portion of the gastrointestinal tract.

Regarding `C[C@H]1c2cccc(O)c2C(=O)C2=C(O)[C@]3(O)C(=O)C(C(N)=O)=C(O)[C@@H](N(C)C)[C@@H]3[C@@H](O)[C@@H]21` [Doxycycline], the absorption entry in data set [1] is “rapidly and almost completely absorbed”.

`O=C(O[C@H]1C[C@H]2CC[C@@H](C1)[N+]21CCCC1)C(O)(c1ccccc1)c1ccccc1` [Trospium chloride]: the bioavailability result (after oral administration) is “approximately 10%” and the bioavailability result (enteric-coated formulation) was “significant decrease of bioavailability”. Further, the absorption entry (after rectal administration) was “almost no absorption at all”.
